Data reported in article PMC13366236 (Acta Pharmaceutica Sinica. B, 2025).

These compounds were tested on MDA-MB-231 cells (assay: Cell viability CCK-8 assay). Conditions: Homo sapiens, MDA-MB-231, 48 h, read-out: Antiproliferative IC50 ± SD.
Format: cell-based, human
In the case of CO[C@H]1C[C@@H]2CC[C@@H](C)[C@@](O)(O2)C(=O)C(=O)N2CCCC[C@H]2C(=O)O[C@H]([C@H](C)C[C@@H]2CC[C@@H](OCCO)[C@H](OC)C2)CC(=O)[C@H](C)/C=C(\C)[C@@H](O)[C@@H](OC)C(=O)[C@H](C)C[C@H](C)/C=C/C=C/C=C/1C [Everolimus, reference compound], the IC50 is reported as 2280 ± 76.3 nM. Compound CC(C)n1nc(-c2ccc3oc(N)nc3c2)c2c(N)ncnc21 [MLN-0128, reference compound] has an IC50 of 179 ± 238 nM. CC(=O)O[C@H]1C(=O)[C@@]2(C)[C@H]([C@H](OC(=O)c3ccccc3)[C@]3(O)C[C@H](OC(=O)[C@H](O)[C@@H](NC(=O)c4ccccc4)c4ccccc4)C(C)=C1C3(C)C)[C@]1(OC(C)=O)CO[C@@H]1C[C@@H]2O [Paclitaxel, reference compound] was tested, and the IC50 was 3862 ± 13.2 nM.

The compounds below were run against mTOR (Homo sapiens, UniProt P42345) (assay: mTOR kinase inhibition, Lance Ultra assay). Conditions: mTOR IC50, text and Fig. 3A.
Format: biochemical
Nc1ccccc1/N=c1\cc(-c2ccc3c(c2)OCO3)oc2ccccc12 [Compound 4a] gave an IC50 of 1.5 µM.

Same assay, conditions: mTOR, IC50, mean ± SD of triplicate measurements
With Nc1ccccc1/N=c1\cc(-c2ccc3c(c2)OCO3)oc2ccccc12 [Compound 4a] the IC50 was 1.54 ± 0.0211 µM. Compound NCC(=O)Nc1ccccc1/N=c1\cc(-c2ccc3c(c2)OCO3)oc2ccccc12 [Compound 5a, (E)-2-amino-N-(2-((2-(benzo[d][1,3]dioxol-5-yl)-4H-chromen-4-ylidene)amino)phenyl)acetamide] has an IC50 of 0.719 ± 0.0074 µM. With NCCC(=O)Nc1cccc(/N=c2\cc(-c3ccc4c(c3)OCO4)oc3ccccc23)c1 [Compound 5ab, (E)-3-amino-N-(3-((2-(benzo[d][1,3]dioxol-5-yl)-4H-chromen-4-ylidene)amino)phenyl)propanamide] the IC50 was over 10 µM. Work on NCCC(=O)Nc1ccc(/N=c2\cc(-c3ccc4c(c3)OCO4)oc3ccccc23)cc1 [Compound 5ac, (E)-3-amino-N-(4-((2-(benzo[d][1,3]dioxol-5-yl)-4H-chromen-4-ylidene)amino)phenyl)propanamide] yielded an IC50 of over 10 µM. With C[C@H](N)C(=O)Nc1ccccc1/N=c1\cc(-c2ccc3c(c2)OCO3)oc2ccccc12 [Compound 5b, (S,E)-2-amino-N-(2-((2-(benzo[d][1,3]dioxol-5-yl)-4H-chromen-4-ylidene)amino)phenyl)propanamide] the IC50 was 3.19 ± 0.194 µM. With N[C@@H](CO)C(=O)Nc1ccccc1/N=c1\cc(-c2ccc3c(c2)OCO3)oc2ccccc12 [Compound 5c, (S,E)-2-amino-N-(2-((2-(benzo[d][1,3]dioxol-5-yl)-4H-chromen-4-ylidene)amino)phenyl)-3-hydroxypropanamide] the IC50 was over 10 µM. COCCC(=O)Nc1ccccc1/N=c1\cc(-c2ccc3c(c2)OCO3)oc2ccccc12 [Compound 5d, (E)-N-(2-((2-(benzo[d][1,3]dioxol-5-yl)-4H-chromen-4-ylidene)amino)phenyl)-3-methoxypropanamide] gave an IC50 of over 10 µM. For NCCC(=O)Nc1ccccc1/N=c1\cc(-c2ccc3c(c2)OCO3)oc2ccccc12 [Compound 5e, (E)-3-amino-N-(2-((2-(benzo[d][1,3]dioxol-5-yl)-4H-chromen-4-ylidene)amino)phenyl)propanamide], the IC50 was 0.317 ± 0.0191 µM. NCCCC(=O)Nc1ccccc1/N=c1\cc(-c2ccc3c(c2)OCO3)oc2ccccc12 [Compound 5f, (E)-4-amino-N-(2-((2-(benzo[d][1,3]dioxol-5-yl)-4H-chromen-4-ylidene)amino)phenyl)butanamide] was tested, and the IC50 was 8.19 ± 1.85 µM. Work on NCCCCC(=O)Nc1ccccc1/N=c1\cc(-c2ccc3c(c2)OCO3)oc2ccccc12 [Compound 5g, (E)-5-amino-N-(2-((2-(benzo[d][1,3]dioxol-5-yl)-4H-chromen-4-ylidene)amino)phenyl)pentanamide] yielded an IC50 of over 10 µM. In the case of O=C(Nc1ccccc1/N=c1\cc(-c2ccc3c(c2)OCO3)oc2ccccc12)N1CCOCC1 [Compound 5h, (E)-N-(2-((2-(benzo[d][1,3]dioxol-5-yl)-4H-chromen-4-ylidene)amino)phenyl)morpholine-4-carboxamide], the IC50 is reported as over 10 µM. O=C(Nc1ccccc1/N=c1\cc(-c2ccc3c(c2)OCO3)oc2ccccc12)N1CCNCC1 [Compound 5i, (E)-N-(2-((2-(benzo[d][1,3]dioxol-5-yl)-4H-chromen-4-ylidene)amino)phenyl)piperazine-1-carboxamide] gave an IC50 of 7.47 ± 0.139 µM. CC(C)(C)[C@H](N)C(=O)Nc1ccccc1/N=c1\cc(-c2ccc3c(c2)OCO3)oc2ccccc12 [Compound 5j, (S,E)-2-amino-N-(2-((2-(benzo[d][1,3]dioxol-5-yl)-4H-chromen-4-ylidene)amino)phenyl)-3,3-dimethylbutanamide] showed an IC50 of over 10 µM. In the case of NCC(=O)Nc1ccccc1/N=c1\cc(-c2ccc3c(c2)OCO3)oc2c(N)cccc12 [Compound 5m, (E)-2-amino-N-(2-((2-(benzo[d][1,3]dioxol-5-yl)-8-amino-4H-chromen-4-ylidene)amino)phenyl)acetamide], the IC50 is reported as 6.16 ± 1.11 µM. NCC(=O)Nc1ccccc1/N=c1\cc(-c2ccc3c(c2)OCCO3)oc2ccccc12 [Compound 5p, (E)-2-amino-N-(2-((2-(2,3-dihydrobenzo[b][1,4]dioxin-6-yl)-4H-chromen-4-ylidene)amino)phenyl)acetamide] was tested, and the IC50 was 1.52 ± 0.121 µM. C[C@H](N)C(=O)Nc1ccccc1/N=c1\cc(-c2ccc3c(c2)OCCO3)oc2c([N+](=O)[O-])cccc12 [Compound 5q, (S,E)-2-amino-N-(2-((2-(2,3-dihydrobenzo[b][1,4]dioxin-6-yl)-8-nitro-4H-chromen-4-ylidene)amino)phenyl)propanamide] was tested, and the IC50 was over 10 µM. Work on C[C@H](N)C(=O)Nc1ccccc1/N=c1\cc(-c2ccc3c(c2)OCCO3)oc2c(N)cccc12 [Compound 5r, (S,E)-2-amino-N-(2-((8-amino-2-(2,3-dihydrobenzo[b][1,4]dioxin-6-yl)-4H-chromen-4-ylidene)amino)phenyl)propanamide] yielded an IC50 of over 10 µM. Compound COc1ccc2/c(=N/c3ccccc3NC(=O)[C@H](C)N)cc(-c3ccc4c(c3)OCCO4)oc2c1 [Compound 5s, (S,E)-2-amino-N-(2-((2-(2,3-dihydrobenzo[b][1,4]dioxin-6-yl)-7-methoxy-4H-chromen-4-ylidene)amino)phenyl)propanamide] has an IC50 of over 10 µM. With COc1ccc2/c(=N/c3ccccc3NC(=O)CN)cc(-c3ccc4c(c3)OCCO4)oc2c1 [Compound 5t, (E)-2-amino-N-(2-((2-(2,3-dihydrobenzo[b][1,4]dioxin-6-yl)-7-methoxy-4H-chromen-4-ylidene)amino)phenyl)acetamide] the IC50 was over 10 µM. C[C@H](N)C(=O)Nc1ccccc1/N=c1\cc(-c2ccc3c(c2)OCCO3)oc2cc(F)ccc12 [Compound 5x, (S,E)-2-amino-N-(2-((2-(2,3-dihydrobenzo[b][1,4]dioxin-6-yl)-7-fluoro-4H-chromen-4-ylidene)amino)phenyl)propanamide] showed an IC50 of over 10 µM. NCC(=O)Nc1ccccc1/N=c1\cc(-c2ccc3c(c2)OCCO3)oc2cc(F)ccc12 [Compound 5y, (E)-2-amino-N-(2-((2-(2,3-dihydrobenzo[b][1,4]dioxin-6-yl)-7-fluoro-4H-chromen-4-ylidene)amino)phenyl)acetamide] gave an IC50 of over 10 µM. With COCCC(=O)Nc1ccccc1/N=c1\cc(-c2ccc3nc(N)oc3c2)oc2ccccc12 [Compound 12b, (E)-N-(2-((2-(2-aminobenzo[d]oxazol-6-yl)-4H-chromen-4-ylidene)amino)phenyl)-3-methoxypropanamide] the IC50 was 3.37 ± 0.334 µM. For CS(=O)(=O)NCCC(=O)Nc1ccccc1/N=c1\cc(-c2ccc3nc(N)oc3c2)oc2ccccc12 [Compound 12d, (E)-N-(2-((2-(2-aminobenzo[d]oxazol-6-yl)-4H-chromen-4-ylidene)amino)phenyl)-3-(methylsulfonamido)propanamide], the IC50 was 3.39 ± 0.164 µM. In the case of CN(C)CCC(=O)Nc1ccccc1/N=c1\cc(-c2ccc3nc(N)oc3c2)oc2ccccc12 [Compound 12e, (E)-N-(2-((2-(2-aminobenzo[d]oxazol-6-yl)-4H-chromen-4-ylidene)amino)phenyl)-3-(dimethylamino)propanamide], the IC50 is reported as 2.61 ± 0.201 µM. CCN(CC)CCC(=O)Nc1ccccc1/N=c1\cc(-c2ccc3nc(N)oc3c2)oc2ccccc12 [Compound 12f, (E)-N-(2-((2-(2-aminobenzo[d]oxazol-6-yl)-4H-chromen-4-ylidene)amino)phenyl)-3-(diethylamino)propanamide] showed an IC50 of over 10 µM. With Nc1nc2ccc(-c3c/c(=N\c4ccccc4NC(=O)CCN4CCCC4)c4ccccc4o3)cc2o1 [Compound 12g, (E)-N-(2-((2-(2-aminobenzo[d]oxazol-6-yl)-4H-chromen-4-ylidene)amino)phenyl)-3-(pyrrolidin-1-yl)propanamide] the IC50 was over 10 µM. Compound Nc1nc2ccc(-c3c/c(=N\c4ccccc4NC(=O)CCN4CCOCC4)c4ccccc4o3)cc2o1 [Compound 12h, (E)-N-(2-((2-(2-aminobenzo[d]oxazol-6-yl)-4H-chromen-4-ylidene)amino)phenyl)-3-morpholinopropanamide] has an IC50 of over 10 µM. For N#Cc1ccc2oc(-c3ccc4nc(N)oc4c3)c/c(=N\c3ccccc3NC(=O)CCN)c2c1 [Compound 12l, (E)-3-amino-N-(2-((2-(2-aminobenzo[d]oxazol-6-yl)-6-cyano-4H-chromen-4-ylidene)amino)phenyl)propanamide], the IC50 was 1.24 ± 0.0861 µM. Compound NCCC(=O)Nc1ccccc1/N=c1\cc(-c2ccc3nc(N)oc3c2)oc2cc(Br)ccc12 [Compound 12o, (E)-3-amino-N-(2-((2-(2-aminobenzo[d]oxazol-6-yl)-7-bromo-4H-chromen-4-ylidene)amino)phenyl)propanamide] has an IC50 of 9.34 ± 0.748 µM. CCNc1nc2ccc(-c3c/c(=N\c4ccccc4NC(=O)CCN)c4ccccc4o3)cc2o1 [Compound 15, (E)-3-amino-N-(2-((2-(2-(ethylamino)benzo[d]oxazol-6-yl)-4H-chromen-4-ylidene)amino)phenyl)propanamide] showed an IC50 of 2.66 ± 0.38 µM. In the case of NCCC(=O)Nc1ccccc1/N=c1\cc(-c2ccc3oc(N)nc3c2)oc2ccccc12 [Compound 21, (E)-3-amino-N-(2-((2-(2-aminobenzo[d]oxazol-5-yl)-4H-chromen-4-ylidene)amino)phenyl)propanamide], the IC50 is reported as 0.696 ± 0.0582 µM.

Same assay, conditions: vs 12a
NCCC(=O)Nc1ccccc1/N=c1\cc(-c2ccc3oc(N)nc3c2)oc2ccccc12 [Compound 21, (E)-3-amino-N-(2-((2-(2-aminobenzo[d]oxazol-5-yl)-4H-chromen-4-ylidene)amino)phenyl)propanamide] was tested, and the “fold decrease in kinase inhibitory activity (mTOR)” value was 15.4 fold.
